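All cell lines were grown in 96-well plates and treated with compound for 48 hours. Abbreviation: GI50, concentration required for 50% inhibition of growth.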 Calls of active or inactive are those of the source. Cut-off read from the data, not from the text of the source: active = GI50 up to about 1.1 µM and inactive = higher.
Columns and labels:
Experiment in all cases: NCI-60 cell line screen, 48 h
[1] = test system: TK-10
[2] = test system: MDA-N
[3] = test system: A549
[4] = test system: U-251
[5] = test system: NCI-H522
[6] = test system: HCT-15
[7] = test system: UACC-62
[8] = test system: UO-31
[9] = test system: NCI-H23
[10] = test system: KM12
[11] = test system: MCF7
[12] = test system: SF-268
[13] = test system: OVCAR-4
[14] = test system: RPMI-8226
[15] = test system: HCC 2998
[16] = test system: SK-OV-3
[17] = test system: Malme-3M
[18] = test system: CAKI-1
[19] = test system: RXF 393
[20] = test system: SK-MEL-5

SMILES | GI50 [1] | GI50 [2] | GI50 [3] | GI50 [4] | GI50 [5] | GI50 [6] [µM] | GI50 [7] | GI50 [8] | GI50 [9] | GI50 [10] | GI50 [11] | GI50 [12] | GI50 [13] | GI50 [14] | GI50 [15] | GI50 [16] | GI50 [17] | GI50 [18] | GI50 [19] | GI50 [20]
O=S(=O)(c1cccc(C(F)(F)F)c1)N1c2ccccc2-n2cccc2C1c1cccnc1 (stereo not given) | > 53.8 µM (inactive) | 26.9 µM (inactive) | 17.3 µM (inactive) | 23.9 µM (inactive) | 15.4 µM (inactive) | 22 | 13.9 µM (inactive) | 17.7 µM (inactive) | 8.49 µM (inactive) | 19.2 µM (inactive) | 13.9 µM (inactive) | > 43.2 µM (inactive) | 24.8 µM (inactive) | 6.17 µM (inactive) | 24.7 µM (inactive) | > 46.9 µM (inactive) | 21.4 µM (inactive) | > 100 µM (inactive) | > 38.7 µM (inactive) | 8.09 µM (inactive)
COc1ccc2c(c1)[C@@H](NC(C)=O)CCc1cc(OC)c(OC)c(OC)c1-2 | 2.54 µM (inactive) | 0.0128 µM (active) | 0.0176 µM (active) | 0.0173 µM (active) | 0.013 µM (active) | 0.015 | 0.0154 µM (active) | 0.0296 µM (active) | 0.0143 µM (active) | 0.0131 µM (active) | 0.0463 µM (active) | 0.0154 µM (active) | 9.84 µM (inactive) | 0.0206 µM (active) | 0.0174 µM (active) | 0.129 µM (active) | 0.0216 µM (active) | 0.0206 µM (active) | 0.0151 µM (active) | 0.019 µM (active)
CS(=O)(=O)OCCCCOS(C)(=O)=O [BUSULFAN] | > 250 µM (inactive) | 209 µM (inactive) | 208 µM (inactive) | 234 µM (inactive) | 239 µM (inactive) | 219 | 187 µM (inactive) | 244 µM (inactive) | 230 µM (inactive) | > 250 µM (inactive) | 213 µM (inactive) | 179 µM (inactive) | 214 µM (inactive) | 237 µM (inactive) | 183 µM (inactive) | > 237 µM (inactive) | 242 µM (inactive) | 161 µM (inactive) | 182 µM (inactive) | 232 µM (inactive)
O=c1oc2c(Cl)cc(Cl)cc2cc1-c1cn2c(n1)sc1ccccc12 | > 100 µM (inactive) | 38.6 µM (inactive) | > 100 µM (inactive) | > 100 µM (inactive) | 30.1 µM (inactive) | 28.6 | 35.9 µM (inactive) | 36.1 µM (inactive) | 95.5 µM (inactive) | > 100 µM (inactive) | 44.1 µM (inactive) | 65.8 µM (inactive) | 47.6 µM (inactive) | 24.7 µM (inactive) | 24.5 µM (inactive) | > 100 µM (inactive) | > 100 µM (inactive) | 71.6 µM (inactive) | 31.2 µM (inactive) | 39.2 µM (inactive)
O=C(O)c1ccc(N2C=[N+]3C(=Nc4ccccc43)C2)cc1 | > 100 µM (inactive) | > 100 µM (inactive) | > 100 µM (inactive) | > 100 µM (inactive) | > 100 µM (inactive) | > 100 | > 100 µM (inactive) | > 100 µM (inactive) | > 100 µM (inactive) | > 100 µM (inactive) | > 100 µM (inactive) | > 100 µM (inactive) | > 100 µM (inactive) | > 100 µM (inactive) | > 100 µM (inactive) | > 100 µM (inactive) | 0.475 µM (active) | > 100 µM (inactive) | > 100 µM (inactive) | > 100 µM (inactive)
Cc1c(N)nc([C@H](CC(N)=O)NC[C@H](N)C(N)=O)nc1C(=O)N[C@H](C(=O)N[C@H](C)[C@@H](O)CC(=O)N[C@H](C(=O)NC(O[C@@H]1O[C@@H](C)[C@@H](N)[C@@H](O)[C@H]1O)C(O)c1nc(-c2nc(C(=O)NCCC[S+](C)C)cs2)cs1)[C@@H](C)O)[C@H](O[C@@H]1O[C@@H](CO)[C@@H](O)[C@H](O)[C@@H]1O[C@H]1O[C@H](CO)[C@@H](O)[C@H](OC(N)=O)[C@@H]1O)c1c[nH]cn1 (stereo not given in full) | > 100 µM (inactive) | > 100 µM (inactive) | 19.7 µM (inactive) | 92.5 µM (inactive) | 15.1 µM (inactive) | 34.4 | 35.4 µM (inactive) | 26.7 µM (inactive) | > 100 µM (inactive) | 97.1 µM (inactive) | 39.4 µM (inactive) | 39.2 µM (inactive) | > 100 µM (inactive) | > 100 µM (inactive) | 8.39 µM (inactive) | > 100 µM (inactive) | 37.2 µM (inactive) | 73.8 µM (inactive) | 25.8 µM (inactive) | 28.8 µM (inactive)
O=[N+]([O-])c1ccc(-n2nc3ccc4c(no[n+]4[O-])c3[n+]2[O-])c([N+](=O)[O-])c1 | 2.86 µM (inactive) | 2.08 µM (inactive) | 16 µM (inactive) | 2.77 µM (inactive) | 1.72 µM (inactive) | 2.69 | 2.73 µM (inactive) | 5.27 µM (inactive) | 2.19 µM (inactive) | 1.79 µM (inactive) | 1.9 µM (inactive) | 5.05 µM (inactive) | 1.68 µM (inactive) | 2.29 µM (inactive) | 3.3 µM (inactive) | 9.51 µM (inactive) | 2.45 µM (inactive) | 2.42 µM (inactive) | 3.27 µM (inactive) | 2.79 µM (inactive)
COc1cc2c(cc1O)Cc1c-2[n+](C)cc2cc(OC)c(OC)cc12 | > 88.1 µM (inactive) | 34.9 µM (inactive) | 38 µM (inactive) | 2.01 µM (inactive) | 0.49 µM (active) | 24.4 | 7.43 µM (inactive) | 8.53 µM (inactive) | 12.6 µM (inactive) | > 59.6 µM (inactive) | 15.2 µM (inactive) | 0.472 µM (active) | > 63.2 µM (inactive) | 9.14 µM (inactive) | > 100 µM (inactive) | > 35.6 µM (inactive) | > 86.5 µM (inactive) | 25.8 µM (inactive) | 22.9 µM (inactive) | 6.76 µM (inactive)
[O-][S+]1c2ccccc2SCSc2ccccc21 | > 100 µM (inactive) | > 100 µM (inactive) | > 100 µM (inactive) | > 100 µM (inactive) | > 100 µM (inactive) | > 100 | > 100 µM (inactive) | > 100 µM (inactive) | > 100 µM (inactive) | > 100 µM (inactive) | > 100 µM (inactive) | > 100 µM (inactive) | > 100 µM (inactive) | 18.2 µM (inactive) | > 100 µM (inactive) | > 100 µM (inactive) | > 100 µM (inactive) | > 100 µM (inactive) | > 100 µM (inactive) | 76.6 µM (inactive)
CCOC(=O)NN(C(=O)OCC)C(C(=O)c1ccccc1)N(NC(=O)OCC)C(=O)OCC | > 100 µM (inactive) | > 100 µM (inactive) | > 100 µM (inactive) | > 100 µM (inactive) | > 100 µM (inactive) | > 100 | > 100 µM (inactive) | > 100 µM (inactive) | > 100 µM (inactive) | > 100 µM (inactive) | > 100 µM (inactive) | > 100 µM (inactive) | > 100 µM (inactive) | > 100 µM (inactive) | > 100 µM (inactive) | > 100 µM (inactive) | > 100 µM (inactive) | > 100 µM (inactive) | > 100 µM (inactive) | > 100 µM (inactive)
O=P(O)(O)CN1CCNCCN(CP(=O)(O)O)CCNCC1 | > 62.2 µM (inactive) | 13.5 µM (inactive) | 8.22 µM (inactive) | > 24.4 µM (inactive) | 9.38 µM (inactive) | 4.2 | 7.74 µM (inactive) | > 100 µM (inactive) | 10.1 µM (inactive) | 6.84 µM (inactive) | 6.97 µM (inactive) | > 100 µM (inactive) | > 71.3 µM (inactive) | 5.97 µM (inactive) | 7.64 µM (inactive) | 8.87 µM (inactive) | 20.9 µM (inactive) | > 47.8 µM (inactive) | > 100 µM (inactive) | 4.76 µM (inactive)
CC(=O)OCC1OC(n2c(N)c(C#N)c(-c3ccccc3)c(C#N)c2=S)C(OC(C)=O)C(OC(C)=O)C1OC(C)=O (stereo not given) | > 100 µM (inactive) | > 100 µM (inactive) | > 100 µM (inactive) | 11.2 µM (inactive) | 13 µM (inactive) | > 100 | > 61.8 µM (inactive) | 45 µM (inactive) | > 65.8 µM (inactive) | > 100 µM (inactive) | > 100 µM (inactive) | 7.8 µM (inactive) | > 49.8 µM (inactive) | > 100 µM (inactive) | > 100 µM (inactive) | 54.2 µM (inactive) | > 100 µM (inactive) | 44.3 µM (inactive) | 23.2 µM (inactive) | > 100 µM (inactive)
CC(C)(C)OC(=O)NC1CCCCC1NC(=O)C(=O)NC1CCCCC1NC(=O)OC(C)(C)C (stereo not given) | 37.6 µM (inactive) | > 100 µM (inactive) | > 100 µM (inactive) | 25.9 µM (inactive) | 66.5 µM (inactive) | > 100 | 24 µM (inactive) | > 100 µM (inactive) | > 100 µM (inactive) | > 100 µM (inactive) | > 100 µM (inactive) | 37.2 µM (inactive) | > 100 µM (inactive) | > 100 µM (inactive) | > 100 µM (inactive) | 44.2 µM (inactive) | > 100 µM (inactive) | 43 µM (inactive) | 9.46 µM (inactive) | > 100 µM (inactive)
COc1ccccc1/[N+]([O-])=C/c1ccccc1OC(=S)S | > 100 µM (inactive) | 17.7 µM (inactive) | > 100 µM (inactive) | 41.7 µM (inactive) | 22.3 µM (inactive) | 23 | 32.9 µM (inactive) | 31 µM (inactive) | 28.2 µM (inactive) | 47.6 µM (inactive) | 23.7 µM (inactive) | 33.7 µM (inactive) | 28.3 µM (inactive) | 21.8 µM (inactive) | 14.7 µM (inactive) | > 100 µM (inactive) | 96.4 µM (inactive) | 58.9 µM (inactive) | 33.7 µM (inactive) | 34.2 µM (inactive)
